Tests used:
[1] = test system: double transgenic rats engineered to express human renin and human angiotensinogen; assay: In vivo blood pressure by telemetry in double transgenic rats; set-up: species or system rat; conditions: 6-week-old dTGRs, oral, 4 consecutive days, dosage of 3-10 mg/kg
Method: Double Transgenic Rats: The efficacy of the renin inhibitors can also be evaluated in vivo in double transgenic rats engineered to express human renin and human angiotensinogen (Bohlender J, Fukamizu A, Lippoldt A, Nomura T, Dietz R, Menard J, Murakami K, Luft F C, Ganten D. High human renin hypertension in transgenic rats. Hypertension 1997, 29, 428-434).
Experiments were conducted in 6-week-old double transgenic rats (dTGRs). The model has been described in detail earlier. […] The human angiotensinogen construct made up the entire human angiotensinogen gene (5 exons and 4 introns), with 1.3 kB of 5′-flanking and 2.4 kB of 3′-flanking sequences. The rats were purchased from RCC Ltd (Füllinsdorf, Switzerland). Radio telemetry transmitters were surgically implanted at 4 weeks of age. The telemetry system provided 24-h recordings of systolic, mean, diastolic arterial pressure (SAP, MAP, DAP, respectively) and heart rate (HR). Beginning on day 42, animals were transferred to telemetry cages. A 24 h telemetry reading was obtained. Rats were then dosed orally on the following 4 consecutive days (days 43-46). The rats were monitored continuously and allowed free access to standard 0.3%-sodium rat chow and drinking water.

[2] = target: T1, plasma renin activity (PRA) (Homo sapiens, UniProt P00797); assay: In vitro plasma renin activity (PRA) in human plasma, angiotensin I radioimmunoassay; type: biochemical; conditions: IC50 in pooled human plasma, 37° C., 90 min
T1 construct: pooled mixed-gender human plasma stabilized with EDTA; from tissue; host or cells: pooled mixed-gender human plasma (EDTA)
T1 sequence (P00797 67-406): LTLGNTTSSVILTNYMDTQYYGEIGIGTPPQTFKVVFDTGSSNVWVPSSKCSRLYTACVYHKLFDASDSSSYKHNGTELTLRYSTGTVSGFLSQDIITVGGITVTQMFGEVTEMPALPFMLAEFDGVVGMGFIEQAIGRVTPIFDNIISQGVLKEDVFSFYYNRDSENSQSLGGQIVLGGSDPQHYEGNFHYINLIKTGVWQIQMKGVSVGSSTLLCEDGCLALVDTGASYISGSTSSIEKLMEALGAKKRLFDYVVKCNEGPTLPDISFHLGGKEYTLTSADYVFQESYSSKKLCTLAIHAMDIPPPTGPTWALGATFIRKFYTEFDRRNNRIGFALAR
Method: Incubations mixtures contained in the final volume of 250 μL 95.5 mM N,N-bis(2-hydroxyethyl)-2-aminoethanesulfonic acid, pH 7.0, 8 mM EDTA, 0.1 mM neomycin sulfate, 1 mg/mL sodium azide, 1 mM phenylmethanesulfonyl fluoride, 2% DMSO and 87.3% of pooled mixed-gender human plasma stabilized with EDTA. For plasma batches with low PRA (less than 1 ng/ml/hr) ˜2 pM of recombinant human renin was added to achieve PRA of 3-4 ng/ml/hr. The cleavage of endogenous angiotensinogen in plasma was carried out at 37° C. for 90 min and the product angiotensin I was measured by competitive radioimmunoassay using DiaSorin PRA kit.

[3] = target: T2, trypsin-activated recombinant human renin (Homo sapiens, UniProt P00797); assay: In vitro renin inhibition, fluorescence of internally quenched peptide substrate; type: biochemical; conditions: fluorogenic peptide substrate, pH 7.0, rt
T2 sequence (P00797 67-406): T1 sequence (P00797 67-406)
Method: The sequence of this peptide corresponds to the sequence of human angiotensinogen. The following test protocol was used. All reactions were carried out in a flat bottom white opaque microtiter plate. A 4 μL aliquot of 400 μM renin substrate (DABCYL-γ-[…]) in 192 μl, assay buffer (50 mM BES, 150 mM NaCl, 0.25 mg/mL bovine serum albumin, pH7.0) was added to 4 μl, of test compound in DMSO at various concentrations ranging from 10 μM to 1 nM final concentrations. Next, 100 μL of trypsin-activated recombinant human renin (final enzyme concentration of 0.2-2 nM) in assay buffer was added, and the solution was mixed by pipetting. The increase in fluorescence at 495 nm (excitation at 340 nm) was measured for 60-360 minutes at rt using a Perkin-Elmer Fusion microplate reader. The slope of a linear portion of the plot of fluorescence-increase as a function of time was then determined, and the rate is used for calculating percent inhibition in relation to uninhibited control. […] (Wang G. T. et al. Anal. Biochem. 1993, 210, 351; Nakamura, N. et al. J. Biochem. (Tokyo) 1991, 109, 741; Murakami, K. et al. Anal Biochem. 1981, 110, 232).

IC50 [2] [nM]	IC50 [3] [nM]	SMILES	effect in lowering blood pressures (mean arterial blood pressure, FIG. 2) [1]
–	–	CN[C@H](CNC(=O)N1CCC[C@@H]([C@@H](OCCNC(=O)OC)c2cccc(Cl)c2)C1)C[C@H]1CCCOC1 [Compound 7, methyl 2-((R)-(3-chlorophenyl)((R)-1-((S)-2-(methylamino)-3-((R)-tetrahydro-2H-pyran-3-yl)propylcarbamoyl)piperidin-3-yl)methoxy)ethylcarbamate]	significant effect in lowering blood pressures
< 10	< 1	CN[C@H](CNC(=O)N1CCC[C@@H]([C@@H](OCCNC(=O)OC)c2cc(F)cc(Cl)c2)C1)C[C@H]1CCCOC1 [Compound 9, methyl 2-((R)-(3-chloro-5-fluorophenyl)((R)-1-((S)-2-(methylamino)-3-((R)-tetrahydro-2H-pyran-3-yl)propylcarbamoyl)piperidin-3-yl)methoxy)ethylcarbamate]	–
< 10	< 10	CN[C@H](CNC(=O)N1CCC[C@@H]([C@@H](OCCNC(=O)OC)c2cc(F)cc(F)c2)C1)C[C@H]1CCCOC1 [Compound 10, methyl 2-((R)-(3,5-difluorophenyl)((R)-1-((S)-2-(methylamino)-3-((R)-tetrahydro-2H-pyran-3-yl)propylcarbamoyl)piperidin-3-yl)methoxy)ethylcarbamate]	–
< 10	< 10	CN[C@H](CNC(=O)N1CCC[C@@H]([C@H](OCCNC(=O)OC)c2cc(Cl)ccc2C)C1)C[C@H]1CCCOC1 [Compound 11, methyl 2-((S)-(5-chloro-2-methylphenyl)((R)-1-((S)-2-(methylamino)-3-((R)-tetrahydro-2H-pyran-3-yl)propylcarbamoyl)piperidin-3-yl)methoxy)ethylcarbamate]	–
–	< 10	CCN[C@H](CNC(=O)N1CCC[C@@H]([C@@H](OCCNC(=O)OC)c2cc(Cl)ccc2C)C1)C[C@H]1CCCOC1 [Compound 12, methyl 2-((R)-(5-chloro-2-methylphenyl)((R)-1-((S)-2-(ethylamino)-3-((R)-tetrahydro-2H-pyran-3-yl)propylcarbamoyl)piperidin-3-yl)methoxy)ethylcarbamate]	–
